Source: ChEMBL document CHEMBL1201862, “PubChem BioAssay data set” (2004)
Active and inactive are the calls of the source.

Tests used:
[1] = A549 cell cytotoxicity, dose response, cytotoxicity control, plate reader, cherry-pick, antagonist series (AID 743412); assay type: functional, cell-based
[2] = toxicity toward HepG2 liver cells – cell-based, plate reader, cherry-pick, antagonist series, cytotoxicity control, dose response (AID 743416); assay type: functional
[3] = microbe, parasite or virus in culture; assay type: functional; conditions: Mycobacterium tuberculosis
Streptokinase A = biological target: T1, Streptokinase A (Streptococcus pyogenes serotype M1, UniProt P10520); assay: viability-normalized secreted streptokinase activity reduction – plasminogen activation absorbance, OD405, dose response (AID 1914); assay type: functional, Streptococcus pyogenes M1 GAS;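 also: secreted streptokinase activity via plasminogen activation per viability signal from cell pellet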
T1 sequence (P10520 whole entry): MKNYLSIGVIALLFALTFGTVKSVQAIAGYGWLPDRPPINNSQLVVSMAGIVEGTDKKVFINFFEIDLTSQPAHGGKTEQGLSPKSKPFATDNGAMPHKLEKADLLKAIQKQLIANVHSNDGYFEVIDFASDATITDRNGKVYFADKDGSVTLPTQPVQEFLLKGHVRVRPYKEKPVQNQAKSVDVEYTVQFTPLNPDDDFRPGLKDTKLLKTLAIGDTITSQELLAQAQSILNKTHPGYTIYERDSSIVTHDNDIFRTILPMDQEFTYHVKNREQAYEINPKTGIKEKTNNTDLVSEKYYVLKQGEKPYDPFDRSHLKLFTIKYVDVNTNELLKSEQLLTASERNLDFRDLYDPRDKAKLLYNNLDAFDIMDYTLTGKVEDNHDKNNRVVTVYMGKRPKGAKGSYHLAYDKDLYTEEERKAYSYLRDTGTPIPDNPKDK

[4] = test system: Streptococcus sp. 'group A'; assay: Streptococcus pyogenes SK(-)GAS viability under kanamycin – luminescence, BacTiterGlo, confirmation, counter-screen for streptokinase expression inhibitor project, dose response (AID 1900); assay type: functional, organism-based
H9c2 = assay: cells; assay type: functional, cell-based; conditions: Rattus norvegicus, H9c2, Myocardium;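 also: confirmatory concentration-response retest of ultra-high-throughput screening hits for modulation of myocardial damage; cell death induced by hydrogen peroxide oxidative stress; compound pretreatment for 60 min then peroxide exposure for 2 h; potency is for protecting the cells against peroxide damage rather than for killing them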
Streptococcus = assay: GAS UMAA2166 growth inhibition – luminescence, BacTiterGlo, counter-screen for streptokinase expression inhibitor project, dose response (AID 1915); assay type: functional, organism-based;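 also: potency for reduction of bacterial viability or growth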
Protein skinhead-1 = biological target: T2, Protein skinhead-1 (Caenorhabditis elegans, UniProt P34707); assay type: functional
T2 sequence (P34707 whole entry): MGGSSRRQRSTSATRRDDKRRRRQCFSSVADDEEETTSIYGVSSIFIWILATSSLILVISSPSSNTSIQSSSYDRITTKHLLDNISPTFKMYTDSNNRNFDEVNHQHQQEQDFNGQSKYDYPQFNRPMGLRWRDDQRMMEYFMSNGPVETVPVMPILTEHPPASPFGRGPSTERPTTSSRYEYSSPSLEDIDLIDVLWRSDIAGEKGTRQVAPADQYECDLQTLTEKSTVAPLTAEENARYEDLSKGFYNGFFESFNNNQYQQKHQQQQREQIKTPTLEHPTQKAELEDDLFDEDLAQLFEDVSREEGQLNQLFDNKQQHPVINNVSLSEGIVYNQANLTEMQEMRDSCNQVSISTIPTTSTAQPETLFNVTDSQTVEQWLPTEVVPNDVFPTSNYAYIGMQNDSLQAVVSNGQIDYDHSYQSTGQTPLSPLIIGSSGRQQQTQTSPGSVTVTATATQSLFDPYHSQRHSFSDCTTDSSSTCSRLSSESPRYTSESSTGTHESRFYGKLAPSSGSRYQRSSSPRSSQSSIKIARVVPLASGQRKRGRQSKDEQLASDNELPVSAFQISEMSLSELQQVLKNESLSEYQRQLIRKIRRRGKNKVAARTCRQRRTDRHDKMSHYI

[5] = loss of viability in HepG2 cells – cell-based, CellTiter-Glo, cherry-picked, cytotoxicity control for Shn3 inhibitor project, dose response (AID 624134); assay type: functional
[6] = reduction of Shn3 3'UTR-driven luciferase in osteoblasts – cell-based, Clone20 osteoblasts, firefly luciferase, cherry-picked, dose response (AID 624132); assay type: functional;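 also: firefly luciferase luminescence from reporter carrying the Shn3 3'UTR in osteoblasts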
[7] = non-specific 3'UTR reporter inhibition in Clone20-Shn3RL – cell-based, Renilla luciferase, cherry-picked, counter-screen for Shn3 inhibitor project, dose response (AID 624133); assay type: functional
Nonstructural protein 1 = Nonstructural protein 1 (Influenza A virus, UniProt Q194T2); assay type: functional, Influenza A virus (A/California/07/2009(H1N1))
[8] = biological target: Voltage-dependent T-type calcium channel subunit alpha-1H (Homo sapiens, UniProt O95180); assay type: functional;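 also: channel activity triggered by adding a high calcium stimulation buffer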
Cytochrome P450 2C19 = Cytochrome P450 2C19 (Homo sapiens, UniProt P33261); assay: Cytochrome panel assay with activity outcomes. Panel member name: p450-cyp2c19 Compounds with AC50 equal or less than 10 uM are considered active; assay type: functional; conditions: read-out: AC50
[9] = Luminescence Cell-Based Dose Retest to Confirm Inhibitors of Cancer Stem Cells. [Related pubchem assays (depositor defined):AID2717, AID2721]; assay type: functional; conditions: Homo sapiens
INS1 = assay: INS-1E survival protection against cytokine death – cell-based, luminescence, retest, dose response (AID 449756); assay type: functional; conditions: Rattus norvegicus;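 also: cell death triggered by IL-1 beta plus TNF-alpha plus IFN-gamma mixture; protective hits raise ATP signal compared with cytokine alone wells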

Voltage-dependent T-type calcium channel subunit alpha-1H, sequence (O95180 whole entry): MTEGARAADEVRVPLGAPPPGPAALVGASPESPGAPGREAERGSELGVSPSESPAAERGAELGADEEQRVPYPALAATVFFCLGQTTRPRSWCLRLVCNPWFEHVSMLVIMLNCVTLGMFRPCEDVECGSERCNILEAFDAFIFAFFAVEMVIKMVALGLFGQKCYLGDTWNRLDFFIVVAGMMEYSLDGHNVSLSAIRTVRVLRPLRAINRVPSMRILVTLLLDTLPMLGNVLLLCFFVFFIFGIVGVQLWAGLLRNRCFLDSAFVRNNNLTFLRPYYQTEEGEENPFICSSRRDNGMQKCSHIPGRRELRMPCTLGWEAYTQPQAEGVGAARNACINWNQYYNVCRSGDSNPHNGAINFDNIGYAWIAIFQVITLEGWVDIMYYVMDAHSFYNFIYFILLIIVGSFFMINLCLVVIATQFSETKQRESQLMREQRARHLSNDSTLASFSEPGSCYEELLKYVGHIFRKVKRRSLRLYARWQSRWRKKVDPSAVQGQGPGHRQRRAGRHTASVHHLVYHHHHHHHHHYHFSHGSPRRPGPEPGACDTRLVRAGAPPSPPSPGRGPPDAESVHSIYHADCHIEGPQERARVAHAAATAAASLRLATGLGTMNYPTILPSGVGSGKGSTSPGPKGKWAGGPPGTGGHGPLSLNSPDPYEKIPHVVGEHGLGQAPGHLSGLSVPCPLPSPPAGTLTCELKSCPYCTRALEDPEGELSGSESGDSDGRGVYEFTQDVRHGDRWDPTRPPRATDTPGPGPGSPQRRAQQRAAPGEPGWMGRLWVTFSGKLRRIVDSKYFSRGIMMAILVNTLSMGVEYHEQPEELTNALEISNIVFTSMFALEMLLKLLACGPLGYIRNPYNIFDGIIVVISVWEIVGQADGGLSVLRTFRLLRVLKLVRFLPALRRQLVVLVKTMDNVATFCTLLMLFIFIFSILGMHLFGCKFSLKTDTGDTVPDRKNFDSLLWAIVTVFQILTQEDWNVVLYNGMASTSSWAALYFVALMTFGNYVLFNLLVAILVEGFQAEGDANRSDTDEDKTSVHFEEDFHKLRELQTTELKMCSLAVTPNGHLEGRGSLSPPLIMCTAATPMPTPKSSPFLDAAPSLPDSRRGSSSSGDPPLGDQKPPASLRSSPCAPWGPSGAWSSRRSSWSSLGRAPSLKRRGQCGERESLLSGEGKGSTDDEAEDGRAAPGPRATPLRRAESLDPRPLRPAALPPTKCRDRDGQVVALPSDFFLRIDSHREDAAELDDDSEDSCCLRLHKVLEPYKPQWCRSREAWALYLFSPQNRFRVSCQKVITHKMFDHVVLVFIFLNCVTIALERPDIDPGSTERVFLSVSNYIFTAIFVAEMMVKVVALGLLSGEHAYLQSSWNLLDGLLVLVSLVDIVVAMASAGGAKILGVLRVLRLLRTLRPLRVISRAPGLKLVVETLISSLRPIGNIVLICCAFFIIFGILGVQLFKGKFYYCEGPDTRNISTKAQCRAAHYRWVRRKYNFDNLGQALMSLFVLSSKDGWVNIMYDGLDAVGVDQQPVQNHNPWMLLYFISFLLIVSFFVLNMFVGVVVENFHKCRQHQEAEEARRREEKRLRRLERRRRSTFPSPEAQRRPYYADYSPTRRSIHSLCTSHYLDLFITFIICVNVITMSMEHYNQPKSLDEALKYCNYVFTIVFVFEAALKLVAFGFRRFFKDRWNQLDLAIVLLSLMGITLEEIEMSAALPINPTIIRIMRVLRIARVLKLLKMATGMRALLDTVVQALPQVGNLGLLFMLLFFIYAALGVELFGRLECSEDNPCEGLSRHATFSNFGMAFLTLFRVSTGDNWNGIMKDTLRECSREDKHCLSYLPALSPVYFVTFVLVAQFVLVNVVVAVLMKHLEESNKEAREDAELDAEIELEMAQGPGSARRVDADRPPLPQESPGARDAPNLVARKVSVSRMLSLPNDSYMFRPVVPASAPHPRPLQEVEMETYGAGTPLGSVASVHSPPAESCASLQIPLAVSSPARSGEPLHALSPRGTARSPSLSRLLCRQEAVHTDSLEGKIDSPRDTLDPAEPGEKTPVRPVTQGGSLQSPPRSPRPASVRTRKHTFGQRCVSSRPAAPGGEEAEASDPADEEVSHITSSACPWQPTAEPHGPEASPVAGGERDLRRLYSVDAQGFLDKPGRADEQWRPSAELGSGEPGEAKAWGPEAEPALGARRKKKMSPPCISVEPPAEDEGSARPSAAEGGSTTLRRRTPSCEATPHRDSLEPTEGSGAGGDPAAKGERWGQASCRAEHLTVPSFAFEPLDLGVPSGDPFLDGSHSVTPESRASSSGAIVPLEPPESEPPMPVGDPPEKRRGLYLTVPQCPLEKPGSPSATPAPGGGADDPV
Nonstructural protein 1, sequence (Q194T2 whole entry): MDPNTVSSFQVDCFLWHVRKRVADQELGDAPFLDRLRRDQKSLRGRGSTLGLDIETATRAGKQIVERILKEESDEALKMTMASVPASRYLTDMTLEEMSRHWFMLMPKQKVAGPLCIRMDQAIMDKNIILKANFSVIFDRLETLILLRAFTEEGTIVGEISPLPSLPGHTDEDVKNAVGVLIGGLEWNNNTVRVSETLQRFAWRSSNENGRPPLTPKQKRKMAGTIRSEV
Cytochrome P450 2C19, sequence (P33261 whole entry): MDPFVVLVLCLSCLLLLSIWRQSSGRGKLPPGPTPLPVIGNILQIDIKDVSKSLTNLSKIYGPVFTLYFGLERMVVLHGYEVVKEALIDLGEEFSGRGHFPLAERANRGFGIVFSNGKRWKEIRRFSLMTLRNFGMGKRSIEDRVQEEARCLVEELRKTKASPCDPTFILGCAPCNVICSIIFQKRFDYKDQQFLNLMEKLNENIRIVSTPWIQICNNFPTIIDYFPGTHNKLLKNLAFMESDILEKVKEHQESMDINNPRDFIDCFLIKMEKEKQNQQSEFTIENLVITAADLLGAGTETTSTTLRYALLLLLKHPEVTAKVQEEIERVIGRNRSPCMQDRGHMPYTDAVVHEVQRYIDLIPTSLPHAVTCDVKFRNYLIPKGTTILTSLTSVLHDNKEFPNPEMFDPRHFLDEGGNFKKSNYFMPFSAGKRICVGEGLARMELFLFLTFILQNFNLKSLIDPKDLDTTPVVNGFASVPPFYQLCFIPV

O=C(c1ccc2c(c1)OCCO2)C1CCN(S(=O)(=O)c2ccc(F)cc2)CC1
AC50 [1]: > 52 µM (inactive) | AC50 [2]: > 52 µM (inactive)

COc1ccc(-c2nc(NC(=O)c3[nH]c(C)c(C(C)=O)c3C)sc2C)cc1
CC50 [3]: > 40 µM (active)

CC(OC(=O)Cc1nnc(O)c2ccccc12)C(=O)Nc1ccc(Cl)cn1 (centres undefined)
EC50 (Streptokinase A): > 150 µM (not active) | EC50 [4]: 9.99 µM (active) | IC50 (H9c2): 7.17 µM (active) | EC50 (Streptococcus): 23.1 µM (active)

O=C(Nc1nc2c(s1)CCc1ccccc1-2)c1ccco1
IC50 (Protein skinhead-1): > 100 µM (inactive)

Fc1ccc2[nH]c3c(NCc4ccccc4)ncnc3c2c1
AC50 [5]: 30.1 µM (active) | AC50 [6]: 3.09 µM (active) | AC50 [7]: 13.1 µM (active) | CC50 [3]: > 40 µM (active)

O=[N+]([O-])c1ccc(Nc2ccccc2)cc1
IC50 (Protein skinhead-1): 12.7 µM (active)

Cc1ccc(NC(=O)CSc2n[nH]c(-c3ccccn3)n2)cc1
IC50 (Nonstructural protein 1): 6.74 µM (active)

O=C(Nc1ccccc1)N1CCCC(c2nc(-c3ccc(F)cc3)no2)C1 (centres undefined)
EC50 [8]: 1.52 µM (active) | AC50 (Cytochrome P450 2C19): 39.8 µM (inconclusive)

S=C(NC1CCCCC1)N(CCc1nc2ccccc2[nH]1)C1CCCC1
EC50 [8]: 5.18 µM (active)

Cc1[nH]c2ccccc2c1C1C(c2ccccc2)=NN=C(C(C)C)N1O (centres undefined)
EC50 [8]: 16.1 µM (active)

CC(c1ccccc1)N1C(=O)c2cccnc2C1=O (centres undefined)
IC50 (Protein skinhead-1): > 100 µM (inactive)

CCOC(=O)N1CCN(S(=O)(=O)c2ccc(C(=O)NNc3nc4cc(C)cc(C)c4s3)cc2)CC1
IC50 (Nonstructural protein 1): > 100 µM (active) | AC50 [9]: 3.69 µM (active) | AC50 (INS1): 3.67 µM (active)

COC(=O)[C@@]12CCCCN1[C@H](c1ccc(-c3cc(C(C)=O)cs3)cc1)[C@H]1C(=O)N(C)C(=O)[C@H]12
IC50 (H9c2): > 79 µM (inactive)

CC(Sc1nnc(NC2CCCCC2)s1)C(=O)Nc1ccc2c(c1)C(=O)c1ccccc1C2=O (centres undefined)
CC50 [3]: 29.7 µM (active)

CCCn1c(=O)c(C(=O)NCCc2ccc(Cl)cc2)c(O)c2ccccc21
IC50 (H9c2): > 79 µM (inactive)

O=C(CSC(=S)N1CCCC1)c1cc(Br)cc(Br)c1O
CC50 [3]: > 40 µM (active)

Cc1ccc(N(C)C(=O)Oc2cccc3ccc(C)nc23)cc1
EC50 [8]: 12.3 µM (active)

O=C(CCn1c(=O)oc2ccccc21)N(Cc1ccccc1)c1ccccc1
IC50 (H9c2): > 79 µM (inactive)

CCN(CC)S(=O)(=O)c1ccc(N(C)CCc2ccc(OC)c(OC)c2)nc1
IC50 (Protein skinhead-1): > 100 µM (inactive)
